The values below come from patent US10988496B2, “Platinum (IV) complex” (Nippon Kayaku Kabushiki Kaisha, priority 2015, dated 2021).

Format in all cases: cell-based
Experiment [1] relates to gastric cancer cells KATO III. In words: In vitro antitumor assay (Methylene Blue staining), KATO III. The conditions noted are these: 72 hours culture with compound; read-out: Cell line IC50 KATO III. From the text: (§1) Gastric cancer and pancreatic cancer cell lines were respectively inoculated on a 96-well plate. Gastric cancer cells KATO III were inoculated at a rate of 1×10^4 cells/well gastric cancer cells MKN-1 were inoculated at a rate of 5×10^5 cells/well, gastric cancer cells MKN-45 were inoculated at a rate of 1×10^4 cells/well, gastric cancer cells MKN-74 were inoculated at a rate of 1×10^4 cells/well, pancreatic cancer cells AsPC-1 were inoculated at a rate of […], pancreatic cancer cells BxPC-3 were inoculated at a rate of 5×10^5 cells/well, pancreatic cancer cells DAN-G were inoculated at a rate of 5×10^5 cells/well, and pancreatic cancer cells SUIT-2 were inoculated at a rate of 5×10^5 cells/well. After culturing the cells for 24 hours, each of the Example compounds or each of the Comparative Example compounds was added to the cells to obtain a final concentration of from 0.0244 μmol/L to 100 μmol/L at a common ratio of 4. Three technical replicates were used. Wells to which no drug was added were prepared as control, and wells to which cells and drugs were not added were prepared as blanks. After the cells were cultured for 72 hours, the culture fluid was removed, the cells were fixed with methanol, and then the cells were stained using a Methylene Blue stain solution. After excess Methylene blue stain solution was washed off, 200 μL of 0.1% hydrochloric acid was added to each well, and the dye was extracted. The light absorbance at 660 nm was measured using a microplate reader, and the cell proliferation inhibitory activity (GI %) was calculated from the light absorbance thus obtained by the following formula. GIXY %=(1−(AXY−B)/(C−B))×100
(§2) Here, GIXY % represents the cell prolj feration-inhibitory activity when the concentration of compound. X is Y μM; AXY represents the average light absorbance of the well to which compound X has been added at Y μM; B represents the light absorbance of a blank well; and C represents the tight absorbance of a control well.
(§3) The GIXY % was determined for various compound concentrations, and a proliferation-inhibition curve was plotted from the concentration and the cell proliferation-inhibitory activity.

The subject of experiment [2] is gastric cancer cells MKN-1. In words: In vitro antitumor assay (Methylene Blue staining), MKN-1. The settings on record: 72 hours culture with compound; read-out: Cell line IC50 MKN-1.
Description: as §1, §2, §3

Experiment [3] relates to gastric cancer cells MKN-45. In words: In vitro antitumor assay (Methylene Blue staining), MKN-45. The conditions noted are these: 72 hours culture with compound; read-out: Cell line IC50 MKN-45.
Description: as §1, §2, §3

The subject of experiment [4] is gastric cancer cells MKN-74. Put plainly: In vitro antitumor assay (Methylene Blue staining), MKN-74. The settings on record: 72 hours culture with compound; read-out: Cell line IC50 MKN-74.
Description: as §1, §2, §3

Experiment [5] deals with pancreatic cancer cells BxPC-3. Put plainly: In vitro antitumor assay (Methylene Blue staining), BxPC-3. The settings on record: 72 hours culture with compound; read-out: Cell line IC50 BxPC-3.
Description: as §1, §2, §3

Experiment [6] has as its system pancreatic cancer cells SUIT-2. In words: In vitro antitumor assay (Methylene Blue staining), SUIT-2. The conditions noted are these: 72 hours culture with compound; read-out: Cell line IC50 SUIT-2.
Description: as §1, §2, §3

The subject of experiment [7] is pancreatic cancer cells DAN-G. Put plainly: In vitro antitumor assay (Methylene Blue staining), DAN-G. The conditions noted are these: 72 hours culture with compound; read-out: Cell line IC50 DAN-G.
Description: as §1, §2, §3

The subject of experiment [8] is pancreatic cancer cells AsPC-1. Put plainly: In vitro antitumor assay (Methylene Blue staining), AsPC-1. The conditions noted are these: 72 hours culture with compound; read-out: Cell line IC50 AsPC-1.
Description: as §1, §2, §3

The term IC50 denotes the concentration that inhibits the measured activity by half. `CC(=O)[O][Pt]1([OH])[O]C(=O)C(=O)[O]1.N[C@@H]1CCCC[C@H]1N` (mixture of isomers) [Comparative Example 1, trans,cis,cis-[Pt(OH)(OAc)(R,R-dach) (ox)]]: the IC50 is 55.7 µM in experiment [1]; 45.3 µM in experiment [2]; 6.2 µM in experiment [3]; over 100 µM in experiment [4]; 44.3 µM in experiment [5]; 26.1 µM in experiment [6]. The IC50 in experiment [7] turned out to be 36.7 µM; in experiment [8] it was 62.9 µM.
As to `N[C@@H]1CCCC[C@H]1N.O=C1[O][Pt]([Cl])([O]CCO)[O]C1=O` (mixture of isomers) [Comparative Example 2, trans,cis,cis-[PtCl (OCH2CH2OH) (R,R-dach) (ox)]], the half-maximal inhibitory concentration (IC50) in experiment [1] turned out to be 42.6 µM; in experiment [2], 10.8 µM; in experiment [3], 1.9 µM; in experiment [4], 58.1 µM; in experiment [5], 5.7 µM; in experiment [6] it was 6.1 µM. Further, the half-maximal inhibitory concentration (IC50) in experiment [7] amounted to 5.6 µM; in experiment [8], 9.7 µM.
For the compound `N[C@@H]1CCCC[C@H]1N.O=C1[O][Pt]([OH])([OH])[O]C1=O` (mixture of isomers) [Comparative Example 3, trans,cis,cis-[Pt(OH)2 (R,R-dach) (ox)]], the half-maximal inhibitory concentration (IC50) in experiment [2] was over 100 µM; in experiment [4] it was over 100 µM; in experiment [6], 39.2 µM; in experiment [7] it was over 100 µM.
For the compound `N[C@@H]1CCCC[C@H]1N.O=C1[O][Pt]([OH])([Cl])[O]C(=O)C12CCC2` (mixture of isomers) [Comparative Example 5, trans,cis,cis-[PtCl(OH) (R,R-dach) (cbdc)]], the IC50 was found to be 4.5 µM in experiment [2], 29 µM in experiment [4], 3.3 µM in experiment [6] and 3.4 µM in experiment [7].
Turning to `N[C@@H]1CCCC[C@H]1N.O=C1[O][Pt]([OH])([OH])[O]C(=O)C12CCC2` (mixture of isomers) [Comparative Example 6, trans,cis,cis-[Pt(OH)2(R,R-dach) (cbdc)]], the half-inhibitory concentration (IC50) was over 100 µM in experiment [2], over 100 µM in experiment [4], 79.4 µM in experiment [6] and over 100 µM in experiment [7].
As to `N[C@@H]1CCCC[C@H]1N.O=C([O-])C(=O)[O-].[Cl-].[OH-].[Pt+4]` (mixture of isomers) [Example 1, trans,cis,cis-[PtCl(OH) (R,R-dach) (ox)]], the half-maximal inhibitory concentration (IC50) in experiment [1] was determined as 13.8 µM; in experiment [2], 1.9 µM; in experiment [3] it was 0.3 µM; in experiment [4], 16 µM; in experiment [5], 1.2 µM; in experiment [6], 0.9 µM. Further, the results for the IC50 in experiment [7] and in experiment [8] were 1 µM and 3.1 µM, respectively.
With `N[C@@H]1CCCC[C@H]1N.O=C1[O][Pt]([OH])([Br])[O]C1=O` (mixture of isomers) [Example 2, trans,cis,cis-[PtBr(OH) (R,R-dach) (ox)]], the values for the half-maximal inhibitory concentration (IC50) in experiment [2] and in experiment [6] were 2.7 µM and 1.5 µM, respectively.
As for `N[C@@H]1CCCC[C@H]1N.[OH][Pt]([Cl])([Cl])[Cl]` (mixture of isomers) [Example 3, trans,cis,cis-[PtCl(OH) (R,R-dach) (Cl)2]], the IC50 in experiment [2] was 2.6 µM; in experiment [4], 17.1 µM; in experiment [6] it was 0.9 µM; in experiment [7] it was 8.6 µM.
Turning to `N[C@@H]1CCCC[C@H]1N.O=C(CCc1ccccc1)[O][Pt]1([O]C(=O)CCc2ccccc2)[O]C(=O)C(=O)[O]1` [Comparative Example 4, trans,cis,cis-[Pt(OCOCH2CH2C6H5)2 (R,R-dach)(ox)]], the half-maximal inhibitory concentration (IC50) in experiment [2] amounted to 9.2 µM; in experiment [4], 27.3 µM; in experiment [6], 1 µM; in experiment [7], 6.8 µM.
For `N[C@@H]1CCCC[C@H]1N.O=C([O-])C(=O)[O-].[Pt+2]` [Example 1-OHP, oxaliplatin], the IC50 in experiment [1] is 9.2 µM; in experiment [2], 0.5 µM; in experiment [3], 0.1 µM; in experiment [4], 8.6 µM; in experiment [5], 0.8 µM; in experiment [7], 1.1 µM. Further, the concentration for half-maximal inhibition (IC50) in experiment [8] amounted to 1.6 µM.
For the compound `NC1CCCCC1N.[Cl][Pt][Cl]` (stereo not shown) [Pt(dach)Cl2], the IC50 is 13.8 µM in experiment [1]; 3.7 µM in experiment [2]; 0.5 µM in experiment [3]; 22.3 µM in experiment [4]; 3.4 µM in experiment [5]; 2.1 µM in experiment [6]. Besides, the IC50 in experiment [7] turned out to be 8.5 µM; in experiment [8] it was 14.7 µM.
